Assay results published in ChEMBL document CHEMBL5331125, “Design, Synthesis, Molecular Docking, and Biological Evaluation of Novel Pimavanserin-Based Analogues as Potential Serotonin 5-HT2A Receptor Inverse Agonists” (J Med Chem, 2023).

Legend:
[1] = target: T1, 5-hydroxytryptamine receptor 2A (Homo sapiens, UniProt P28223); test: Displacement of [3H]ketanserin from postmortem human brain membrane homogenate 5-HT2A receptor incubated for 120 mins by microbeta liquid scintillation counter analysis; format: cell membranes
T1 sequence (P28223 whole entry): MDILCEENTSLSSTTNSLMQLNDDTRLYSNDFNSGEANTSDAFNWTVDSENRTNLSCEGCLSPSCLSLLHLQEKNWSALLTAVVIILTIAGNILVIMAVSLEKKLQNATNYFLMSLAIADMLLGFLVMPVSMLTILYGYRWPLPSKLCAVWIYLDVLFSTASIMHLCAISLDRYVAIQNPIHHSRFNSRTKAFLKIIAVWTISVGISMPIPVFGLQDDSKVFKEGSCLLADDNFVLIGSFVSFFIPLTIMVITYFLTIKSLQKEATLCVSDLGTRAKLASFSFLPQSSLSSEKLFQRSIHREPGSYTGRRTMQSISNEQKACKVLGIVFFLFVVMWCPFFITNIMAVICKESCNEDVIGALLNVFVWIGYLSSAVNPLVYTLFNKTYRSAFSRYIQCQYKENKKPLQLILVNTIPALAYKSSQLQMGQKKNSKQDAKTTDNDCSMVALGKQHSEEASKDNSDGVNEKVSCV

[2] = target: T1, 5-hydroxytryptamine receptor 2A; test: Inverse agonist activity at human postmortem human brain membrane 5-HT2A receptor assessed as […] in [35S]GTPgammaS binding by liquid scintillation spectrometry analysis; format: functional, cell membranes
[3] = target: T1, 5-hydroxytryptamine receptor 2A; test: Inverse agonist activity at human 5-HT2A receptor assessed as […] in [35S]GTPgammaS binding by liquid scintillation spectrometry analysis; format: functional
[4] = target: T1, 5-hydroxytryptamine receptor 2A; test: Displacement of [3H]ketanserin from human 5-HT2A receptor incubated for 120 mins by microbeta liquid scintillation counter analysis
[5] = target: T1, 5-hydroxytryptamine receptor 2A; test: Inverse agonist activity at human 5-HT2A receptor expressed in cell membrane assessed as […] in [35S]GTPgammaS binding by liquid scintillation spectrometry analysis; format: functional, cell membranes
[6] = target: T1, 5-hydroxytryptamine receptor 2A; test: Inverse agonist activity at human prefrontal cortex 5-HT2A receptor assessed as […] in [35S]GTPgammaS binding by liquid scintillation spectrometry analysis; format: functional, tissue-based
[7] = target: T1, 5-hydroxytryptamine receptor 2A; test: Displacement of [3H]ketanserin from human brain cortex 5-HT2A receptor by Cheng-Prusoff equation analysis; format: tissue-based
[8] = target: T1, 5-hydroxytryptamine receptor 2A; test: Displacement of [3H]ketanserin human recombinant 5-HT2A receptor by Cheng-Prusoff equation analysis

| SMILES | Ki [1] | IC50 [2] | IC50 [3] | Ki [4] | IC50 [5] | IC50 [6] | Ki [7] | Ki [8] |
| --- | --- | --- | --- | --- | --- | --- | --- | --- |
| CC1Cc2cc(CNC(=O)N(Cc3ccc(F)cc3)C3CCN(C)CC3)ccc2O1 (stereo not given) | 501 pM | 251 pM | 251 pM | 31.6 pM | 79400 pM | 12600 pM | – | – |
| CN1CCC(N(Cc2ccc(F)cc2)C(=O)NCc2ccc3c(c2)CC(C)(C)O3)CC1 | 50.1 pM | 50.1 pM | 63.1 pM | 2.51 pM | 79400 pM | 12600 pM | 60 pM | 3 pM |
| CC1COc2ccc(CNC(=O)N(Cc3ccc(F)cc3)C3CCN(C)CC3)cc21 (stereo not given) | 5010 pM | 316 pM | 158 pM | 158 pM | 79400 pM | 12600 pM | – | – |
